For one data set, the system named is Kwl:ICR mice. To be noted: mouse, in vivo, 14 days. Here is the method: (§1) The present inventors performed single oral dose toxicity tests (2,000 mg/kg) for N-nonanoyltryptamine over 14 days using Kwl:ICR mice. […] Patch tests were performed on human skin, the skin irritation index was 0.0, and the safety was confirmed (LIFE SCIENCE LABORATORIES, LTD., June 2011).

The next data set concerns goats. It is filed as in vivo. To be noted: 1.0 mg/50 kg/day over 4 years.
The next data set has as its system human skin. The data set is described as follows: patch test on human skin. The note with it: patch tests on human skin. It is filed as in vivo. How it is done:
as §1

Bounds are passed on as bounds.

With `CCCCCCCCC(=O)NCCc1c[nH]c2ccccc12` [N-nonanoyltryptamine], the lethal dose in the data set with Kwl:ICR mice is reported as ≥ 2,000 mg/kg. Further, in the data set on goats, the breeding effect entry is recorded as “strong breeding effect”. Besides, the skin irritation index with human skin was 0.0.
